Results reported in patent publication US4667027A, “Cephem compounds and their production” (Takeda Chemical Industries, Ltd., priority 1984, dated 1987).
Converted amounts (≈) assume the structure as drawn.

Tests used:
penicillinase = assay: β-lactamase stability test, growth inhibition zone with penicillinase; assay type: cell-based; details: penicillinase added; test organism Escherichia coli PG8; drug 100 μg/ml; nutrient agar pH 7.0
From the text: (§1) TAN-591A, B, C are stable to various β-lactamases. The results of stability test of the antibiotic to two β-lactamases employing Escherichia coli PG8 as a test organism are shown in Table 5. […]

Escherichia coli PG8 = assay: β-lactamase stability test, growth inhibition zone, no β-lactamase added; assay type: cell-based; details: β-lactamase not added; test organism Escherichia coli PG8; drug 100 μg/ml; nutrient agar pH 7.0; read-out: diameter of growth inhibition zone
From the text: as §1

Escherichia coli 0-111 = assay: Therapeutic effect to infectious disease in mice; assay type: in vivo; details: Escherichia coli, 0111, sc
From the text: The therapeutic effect of TAN-592B.hydrochloride to infectious disease in mice is shown below.
*Intraperitoneal infection
The therapeutic effect of TAN-591A.hydrochloride to infectious disease in mice is shown below.

[1] = Toxicity after subcutaneous administration to mice; assay type: in vivo; details: dose of 1 g/kg, hydrochloride
Description: When Antibiotic TAN-592B hydrochloride was administered subcutaneously in a dose of 1 g/kg to mice, no death was observed, and therefore Antibiotic TAN-592 is considered to be low in toxicity.
When Antibiotic TAN-591A hydrochloride was administered subcutaneously a dose of 1 g/kg to mice, no death was observed, and therefore Antibiotic TAN-591 is considered to be low in toxicity.

Solubility in solvents = assay type: physicochemical; details: hydrochloride
cephalosporinase = assay: β-lactamase stability test, growth inhibition zone with cephalosporinase; assay type: cell-based; details: cephalosporinase added; test organism Escherichia coli PG8; drug 100 μg/ml; nutrient agar pH 7.0
From the text: as §1

[2] = tested on: Acinetobacter calcoaceticus IFO 12552; assay: Antimicrobial spectrum, minimal inhibitory concentration (agar dilution); assay type: cell-based; details: IFO12552, hydrochloride, inoculum 1 loopful of about 10^6/ml
From the text: (§2) *Culture medium: 17.5 g of Bacto antibiotic medium 3 (Difco), 5 g of Bact
(§3) yeast extract (Difco), 20 g of Bacto agar (Difco), 1 l of distilled water
(§4) The amount of inoculated microorganism: 1 loopful of about 10^6 /ml o
(§5) microorganism suspension.
(§6) *Medium: Bacto antibiotic medium (Difco) 17.5 g, Bacto yeast extract
(§7) (Difco) 5 g, Bacto agar (Difco) 20 g, distilled water 1 l, pH not

[3] = tested on: Serratia marcescens IFO 12648; assay: as above; assay type: cell-based; details: IFO12648, hydrochloride, inoculum 1 loopful of about 10^6/ml
From the text: as §2, §3, §4, §5, §6, §7

[4] = tested on: Brevibacterium thiogenitalis ATCC 19240; assay: as above; assay type: cell-based; details: Corynebacterium glutamicum, ATCC19240, hydrochloride, inoculum 1 loopful of about 10^6/ml
From the text: as §2, §3, §4, §5, §6, §7

[5] = tested on: Bacillus megaterium IFO 12108; assay: as above; assay type: cell-based; details: Priestia megaterium, IFO12108, hydrochloride, inoculum 1 loopful of about 10^6/ml
From the text: as §2, §3, §4, §5, §6, §7

[6] = tested on: Klebsiella pneumoniae IFO 3317; assay: as above; assay type: cell-based; details: IFO3317, hydrochloride, inoculum 1 loopful of about 10^6/ml
From the text: as §2, §3, §4, §5, §6, §7

[7] = tested on: Pseudomonas aeruginosa IFO 3080; assay: as above; assay type: cell-based; details: IFO3080, hydrochloride, inoculum 1 loopful of about 10^6/ml
From the text: as §2, §3, §4, §5, §6, §7

[8] = tested on: Staphylococcus aureus FDA 209P; assay: as above; assay type: cell-based; details: FDA209P, hydrochloride, inoculum 1 loopful of about 10^6/ml
From the text: as §2, §3, §4, §5, §6, §7

[9] = tested on: Salmonella typhimurium IFO 12529; assay: as above; assay type: cell-based; details: Salmonella enterica, hydrochloride, inoculum 1 loopful of about 10^6/ml
From the text: as §2, §3, §4, §5, §6, §7

[10] = tested on: Citrobacter freundii IFO 12681; assay: as above; assay type: cell-based; details: IFO12681, hydrochloride, inoculum 1 loopful of about 10^6/ml
From the text: as §2, §3, §4, §5, §6, §7

[11] = tested on: Proteus vulgalis IFO 3988; assay: as above; assay type: cell-based; details: hydrochloride, inoculum 1 loopful of about 10^6/ml
From the text: as §2, §3, §4, §5, §6, §7

[12] = tested on: Alcaligenes faecalis IFO 13111; assay: as above; assay type: cell-based; details: IFO13111, hydrochloride, inoculum 1 loopful of about 10^6/ml
From the text: as §2, §3, §4, §5, §6, §7

[13] = tested on: Escherichia coli NIHJ JC-2; assay: as above; assay type: cell-based; details: NIHJJC2, hydrochloride, inoculum 1 loopful of about 10^6/ml
From the text: as §2, §3, §4, §5, §6, §7

[14] = tested on: Bacillus subtilis NIHJ PCI 219; assay: as above; assay type: cell-based; details: hydrochloride, inoculum 1 loopful of about 10^6/ml
From the text: as §2, §3, §4, §5, §6, §7

[15] = dimethylsulfoxide, methanol, acetone, ethyl acetate
[16] = water, aqueous acetone, aqueous alcohol

| Compound | diameter of growth inhibition zone (penicillinase) [mm] | zone of inhibition at 100 µg/mL (Escherichia coli PG8) [mm] | ED50 (Escherichia coli 0-111) [mg/kg] | death [1] | Solubility (Solubility in solvents; [15]) | Solubility (Solubility in solvents; [16]) | diameter of growth inhibition zone (cephalosporinase) [mm] | MIC [2] [µg/mL] | MIC [3] [µg/mL] | MIC [4] [µg/mL] | MIC [5] [µg/mL] | MIC [6] [µg/mL] | MIC [7] [µg/mL] | MIC [8] [µg/mL] | MIC [9] [µg/mL] | MIC [10] [µg/mL] | MIC [11] [µg/mL] | MIC [12] [µg/mL] | MIC [13] [µg/mL] | MIC [14] [µg/mL] |
| --- | --- | --- | --- | --- | --- | --- | --- | --- | --- | --- | --- | --- | --- | --- | --- | --- | --- | --- | --- | --- |
| CO[C@@]1(NC(=O)CCC[C@@H](N)C(=O)O)C(=O)N2C(C(=O)O)=C(COC(N)=O)CS[C@@H]21 [CMC, cephamycin C, reference compound] | 34 | 34 | – | – | – | – | – | – | – | – | – | – | – | – | – | – | – | – | – | – |
| CC1(C)S[C@@H]2[C@H](NC(=O)Cc3ccccc3)C(=O)N2[C@H]1C(=O)O [PCG, benzylpenicillin, reference compound] | – | 22 | – | – | – | – | – | – | – | – | – | – | – | – | – | – | – | – | – | – |
| NCCCCC(NC(=O)C(N)CO)C(O)CC(=O)OCC1=C(C(=O)O)N2C(=O)C(NC=O)(NC(=O)CCCC(N)C(=O)O)C2SC1 (stereo not shown) [TAN-591A] | 22 | 22.5 | 16.2 | no death | Sparingly soluble | Easily soluble | 22 | 1.56 (≈ 2.31 µM) | 25 (≈ 37 µM) | 6.25 (≈ 9.25 µM) | 12.5 (≈ 18.5 µM) | 50 (≈ 74 µM) | 100 (≈ 148 µM) | > 100 | 25 (≈ 37 µM) | 50 (≈ 74 µM) | 25 (≈ 37 µM) | 6.25 (≈ 9.25 µM) | 25 (≈ 37 µM) | 12.5 (≈ 18.5 µM) |
| NCCCCC(NC(=O)C(CO)NC(=O)C(N)CO)C(O)CC(=O)OCC1=C(C(=O)O)N2C(=O)C(NC=O)(NC(=O)CCCC(N)C(=O)O)C2SC1 (stereo not shown) [TAN-591B] | 23 | 23 | – | – | Sparingly soluble | Easily soluble | 23 | 3.13 (≈ 4.1 µM) | 50 (≈ 65.5 µM) | 6.25 (≈ 8.19 µM) | 12.5 (≈ 16.4 µM) | 50 (≈ 65.5 µM) | > 100 | > 100 | 25 (≈ 32.8 µM) | 50 (≈ 65.5 µM) | 25 (≈ 32.8 µM) | 12.5 (≈ 16.4 µM) | 25 (≈ 32.8 µM) | 25 (≈ 32.8 µM) |
| CC(N)C(=O)NC(CO)C(=O)NC(CO)C(=O)NC(CCCCN)C(O)CC(=O)OCC1=C(C(=O)O)N2C(=O)C(NC=O)(NC(=O)CCCC(N)C(=O)O)C2SC1 (stereo not shown) [TAN-591C] | 22 | 22 | – | – | Sparingly soluble | Easily soluble | 22 | 3.13 (≈ 3.75 µM) | 50 (≈ 60 µM) | 12.5 (≈ 15 µM) | 25 (≈ 30 µM) | 50 (≈ 60 µM) | > 100 | > 100 | 50 (≈ 60 µM) | 100 (≈ 120 µM) | 50 (≈ 60 µM) | 50 (≈ 60 µM) | 50 (≈ 60 µM) | 25 (≈ 30 µM) |
| N=C(N)NCCCC(NC(=O)C(N)CO)C(O)CC(=O)OCC1=C(C(=O)O)N2C(=O)C(NC=O)(NC(=O)CCCC(N)C(=O)O)C2SC1 (stereo not shown) [TAN-592A] | 28 | 28 | – | – | Sparingly soluble | Easily soluble | 28 | 1.56 (≈ 2.22 µM) | 50 (≈ 71 µM) | 3.13 (≈ 4.45 µM) | 12.5 (≈ 17.8 µM) | 50 (≈ 71 µM) | 50 (≈ 71 µM) | > 50 | 50 (≈ 71 µM) | 50 (≈ 71 µM) | 12.5 (≈ 17.8 µM) | 3.13 (≈ 4.45 µM) | 12.5 (≈ 17.8 µM) | 12.5 (≈ 17.8 µM) |
| N=C(N)NCCCC(NC(=O)C(CO)NC(=O)C(N)CO)C(O)CC(=O)OCC1=C(C(=O)O)N2C(=O)C(NC=O)(NC(=O)CCCC(N)C(=O)O)C2SC1 (stereo not shown) [TAN-592B] | 29 | 29 | 16.2 | no death | Sparingly soluble | Easily soluble | 29 | 1.56 (≈ 1.97 µM) | 25 (≈ 31.6 µM) | 6.25 (≈ 7.9 µM) | 12.5 (≈ 15.8 µM) | 50 (≈ 63.2 µM) | > 50 | > 50 | 25 (≈ 31.6 µM) | 25 (≈ 31.6 µM) | 12.5 (≈ 15.8 µM) | 6.25 (≈ 7.9 µM) | 25 (≈ 31.6 µM) | 12.5 (≈ 15.8 µM) |
| CC(N)C(=O)NC(CO)C(=O)NC(CO)C(=O)NC(CCCNC(=N)N)C(O)CC(=O)OCC1=C(C(=O)O)N2C(=O)C(NC=O)(NC(=O)CCCC(N)C(=O)O)C2SC1 (stereo not shown) [TAN-592C] | 29 | 29 | – | – | Sparingly soluble | Easily soluble | 29 | 3.13 (≈ 3.63 µM) | 50 (≈ 58 µM) | 6.25 (≈ 7.25 µM) | 12.5 (≈ 14.5 µM) | 50 (≈ 58 µM) | > 50 | > 50 | 25 (≈ 29 µM) | > 50 | 25 (≈ 29 µM) | 6.25 (≈ 7.25 µM) | 25 (≈ 29 µM) | 12.5 (≈ 14.5 µM) |
| N=C(N)NCCCC(NC(=O)C(N)CO)C(O)CC(=O)OCC1=C(C(=O)O)N2C(=O)C(NC(=O)CCCC(N)C(=O)O)C2SC1 (stereo not shown) [TAN-592D] | – | – | – | – | Sparingly soluble | Easily soluble | – | > 50 | > 50 | 3.13 (≈ 4.74 µM) | 1.56 (≈ 2.36 µM) | > 50 | > 50 | > 50 | 50 (≈ 75.7 µM) | > 50 | 50 (≈ 75.7 µM) | 25 (≈ 37.8 µM) | > 50 | 1.56 (≈ 2.36 µM) |
| N=C(N)NCCCC(NC(=O)C(CO)NC(=O)C(N)CO)C(O)CC(=O)OCC1=C(C(=O)O)N2C(=O)C(NC(=O)CCCC(N)C(=O)O)C2SC1 (stereo not shown) [TAN-592E] | – | – | – | – | Sparingly soluble | Easily soluble | – | > 50 | > 50 | 3.13 (≈ 4.19 µM) | 1.56 (≈ 2.09 µM) | > 50 | > 50 | > 50 | 50 (≈ 66.9 µM) | > 50 | 50 (≈ 66.9 µM) | 25 (≈ 33.4 µM) | > 50 | 1.56 (≈ 2.09 µM) |
| CC(N)C(=O)NC(CO)C(=O)NC(CO)C(=O)NC(CCCNC(=N)N)C(O)CC(=O)OCC1=C(C(=O)O)N2C(=O)C(NC(=O)CCCC(N)C(=O)O)C2SC1 (stereo not shown) [TAN-592F] | – | – | – | – | Sparingly soluble | Easily soluble | – | > 50 | > 50 | 3.13 (≈ 3.82 µM) | 1.56 (≈ 1.91 µM) | > 50 | > 50 | 50 (≈ 61.1 µM) | > 50 | > 50 | 50 (≈ 61.1 µM) | 12.5 (≈ 15.3 µM) | > 50 | 1.56 (≈ 1.91 µM) |
